± gives the expanded uncertainty stated by the source. Blank lines part the entries; values can stand above or below the molecule they belong to.
Conditions: Liquid, Ebulliometric method (Recirculating still)

vapor or sublimation pressure (428.64 K): 101.33 ± 4.1 kPa
vapor or sublimation pressure (428.65 K): 101.33 ± 4.1 kPa
SMILES: CC1=CCC2CC1C2(C)C (stereo unspecified) [2-pinene]

vapor or sublimation pressure (442.63 K): 101.33 ± 4.1 kPa
SMILES: CC1=CC[C@@H]2[C@H](C1)C2(C)C [(+)-3-carene]

More lines, now with the values behind:

SMILES: C=C1CC/C=C(\C)CC[C@@H]2[C@@H]1CC2(C)C
vapor or sublimation pressure (526.4 K): 101.33 ± 4.1 kPa
vapor or sublimation pressure (526.47 K): 101.33 ± 4.1 kPa
vapor or sublimation pressure (526.53 K): 101.33 ± 4.1 kPa

SMILES: Cc1ccc(C(C)C)cc1 [1-(1-methylethyl)-4-methylbenzene]
vapor or sublimation pressure (449.7 K): 101.33 ± 4.1 kPa

SMILES: C=C1C2CCC(C2)C1(C)C (stereo unspecified) [2,2-dimethyl-3-methylenebicyclo[2.2.1]heptane]
vapor or sublimation pressure (432.73 K): 101.33 ± 4.1 kPa
vapor or sublimation pressure (432.74 K): 101.33 ± 4.1 kPa
vapor or sublimation pressure (432.76 K): 101.33 ± 4.1 kPa
vapor or sublimation pressure (432.8 K): 101.33 ± 4.1 kPa
